Data published in ChEMBL document CHEMBL4229406, “The tyrosinase inhibitory effects of isoxazolone derivatives with a (Z)-β-phenyl-α, β-unsaturated carbonyl scaffold” (Bioorg Med Chem, 2018).

Key:
[1] = Antioxidant activity assessed as DPPH-radical scavenging activity at 1 mM incubated for 30 mins under dark condition; format: functional
Tyrosinase = target: T1, Tyrosinase (Agaricus bisporus, UniProt O42713); assay: Inhibition of mushroom tyrosinase using L-tyrosine as substrate measured after 30 mins
T1 sequence (O42713 whole entry): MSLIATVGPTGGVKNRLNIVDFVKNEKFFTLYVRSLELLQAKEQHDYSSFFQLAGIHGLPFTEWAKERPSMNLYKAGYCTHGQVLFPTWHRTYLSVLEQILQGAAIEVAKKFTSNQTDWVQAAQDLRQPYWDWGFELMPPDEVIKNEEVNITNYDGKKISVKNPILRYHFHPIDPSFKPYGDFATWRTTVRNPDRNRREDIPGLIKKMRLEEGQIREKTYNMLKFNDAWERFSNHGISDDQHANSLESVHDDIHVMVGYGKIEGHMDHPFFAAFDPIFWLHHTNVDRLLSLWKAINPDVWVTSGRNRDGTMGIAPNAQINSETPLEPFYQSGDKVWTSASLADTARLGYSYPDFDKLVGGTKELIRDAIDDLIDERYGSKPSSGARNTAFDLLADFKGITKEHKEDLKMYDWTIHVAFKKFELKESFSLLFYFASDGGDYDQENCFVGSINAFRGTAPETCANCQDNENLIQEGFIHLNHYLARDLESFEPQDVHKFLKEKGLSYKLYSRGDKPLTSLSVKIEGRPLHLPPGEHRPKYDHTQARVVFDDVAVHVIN

[2] = target: T2, Tyrosinase (Agaricus bisporus) (UniProt O42713); conditions: 500 uM
T2 sequence (whole entry): T1 sequence (O42713 whole entry)
Description: Inhibition of mushroom tyrosinase at 500 uM using L-tyrosine as substrate measured after 30 mins relative to control

[3] = target: T3, Tyrosinase (Mus musculus) (UniProt P11344); assay: Inhibition of tyrosinase in alpha-MSH stimulated mouse B16F10 cells using L-dopa as substrate pretreated for 24 hrs followed by substrate addition and measured after 30 mins
T3 sequence (whole entry): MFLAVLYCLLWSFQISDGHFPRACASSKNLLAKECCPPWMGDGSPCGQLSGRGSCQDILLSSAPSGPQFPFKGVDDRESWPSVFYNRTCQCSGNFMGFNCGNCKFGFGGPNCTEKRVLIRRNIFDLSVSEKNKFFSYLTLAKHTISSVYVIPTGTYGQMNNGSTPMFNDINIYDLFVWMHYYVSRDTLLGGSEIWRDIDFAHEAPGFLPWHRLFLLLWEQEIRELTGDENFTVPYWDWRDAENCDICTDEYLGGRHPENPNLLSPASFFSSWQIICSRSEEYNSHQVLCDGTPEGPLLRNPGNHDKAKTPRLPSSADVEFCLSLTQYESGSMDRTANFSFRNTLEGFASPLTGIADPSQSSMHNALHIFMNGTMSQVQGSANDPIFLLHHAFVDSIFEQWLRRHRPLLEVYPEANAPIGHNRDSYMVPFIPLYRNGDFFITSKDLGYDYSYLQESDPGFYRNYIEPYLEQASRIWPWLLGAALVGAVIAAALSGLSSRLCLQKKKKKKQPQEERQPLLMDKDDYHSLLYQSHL

[4] = Cytotoxicity against mouse B16F10 cells assessed as cell viability at 10 uM after 24 hrs by MTT assay relative to control; format: cell-based, B16-F10; conditions: read-out: Activity
[5] = Cytotoxicity against mouse B16F10 cells assessed as cell viability at 25 uM after 24 hrs by MTT assay relative to control; format: cell-based, B16-F10; conditions: read-out: Activity
[6] = target: T2, Tyrosinase (Agaricus bisporus); assay: Competitive inhibition of mushroom tyrosinase using varying levels of L-tyrosine as substrate measured after 30 mins by Lineweaver-Burk plot analysis
B16-F10 = assay: Antimelanogenic activity in mouse B16F10 cells assessed as inhibition of alpha-MSH-stimulated melanin synthesis measured after 24 hrs by ELISA; format: functional, cell-based
[7] = Cytotoxicity against mouse B16F10 cells assessed as cell viability at 5 uM after 24 hrs by MTT assay relative to control; format: cell-based, B16-F10; conditions: read-out: Activity

| Structure (SMILES) | Activity [1] | other results |
| --- | --- | --- |
| COc1ccc(/C=C2\C(=O)ON=C2c2ccccc2)cc1OC | 49.8% | – |
| O=C1ON=C(c2ccccc2)/C1=C/c1ccc(O)c(O)c1 | 98.6% | – |
| O=C1ON=C(c2ccccc2)/C1=C/c1ccc(O)cc1O | 46% | IC50 (Tyrosinase): 32.1 µM |
| COc1ccc(/C=C2\C(=O)ON=C2c2ccccc2)c(OC)c1 | 41.8% | – |
| O=C1O[C@H]([C@@H](O)CO)C(O)=C1O | 87.5% | – |
| COc1cc(/C=C2\C(=O)ON=C2c2ccccc2)cc(OC)c1O | 94.8% | – |
| OC[C@H]1O[C@@H](Oc2ccc(O)cc2)[C@H](O)[C@@H](O)[C@@H]1O | – | inhibition [2]: 32.6% |
| O=C1ON=C(c2ccccc2)/C1=C/c1ccc(O)cc1 | 48.4% | – |
| COc1ccc(/C=C2\C(=O)ON=C2c2ccccc2)cc1O | 54.2% | – |
| O=C1ON=C(c2ccccc2)/C1=C/c1ccc(O)c(Br)c1 | 82.6% | inhibition [3]: Dose-dependent effect; viability at 24 h, 10 µM [4]: 98.7%; viability at 24 h, 25 µM [5]: 96.3%; inhibition [6]: Dose-dependent effect; inhibition (B16-F10): Dose-dependent effect; IC50 (Tyrosinase): 14.6 µM; viability at 24 h, 5 µM [7]: 100% |
| COc1ccc(/C=C2\C(=O)ON=C2c2ccccc2)cc1 | 47.2% | – |
| COc1cc(/C=C2\C(=O)ON=C2c2ccccc2)ccc1O | 75.3% | – |
| O=C1ON=C(c2ccccc2)/C1=C/c1ccccc1O | 74.4% | – |
| CCOc1ccc(/C=C2\C(=O)ON=C2c2ccccc2)cc1O | 66.4% | – |
